From patent publication US11952593B2, “Detection and treatment of daughter number variations in cancer cells” (PharmacoGenetics Limited, priority 2020, dated 2024)

Columns and labels:
Assay type in all cases: cell-based, human
HepG2 cells = assay: Cell cytotoxicity assay (crystal violet), HepG2; details: HepG2, 24 hours, 50 μM wogonin, 20 μM 5-FU, absorbance 600 nm
Protocol: (§1) Cell cytotoxicity assay was carried out on 96 well plate, where cells were treated with neutral, acidic, alkaline pH and anti-cancer drug wogonin or 5-FU. After 24 hours, crystal violet (8% in methanol), and dye absorbed by live cells was extracted with sodium citrate (0.1 M) in 50% ethanol. Absorbance was read at 600 nm.
(§2) HepG2, HeLa and A549 cells were grown to a monolayer density of 1×10^3 per well in neutral growth medium overnight. There upon the cells were changed to various treatment media at neutral, acidic and alkaline pHs, neutral medium containing 50 μM wogonin and neutral medium containing 20 μM 5-FU, for 24 hours at 37° C. in humidified 5% CO2 atmosphere. Following the treatment, floating cells were removed, and the attached cells were stained with crystal violet (8% in methanol); the dye absorbed by the live cells was extracted with sodium citrate (0.1 M) in 50% ethanol [1 25], and quantitated by absorbance at 600 nm.

HeLa cells [1] = assay: Daughter-cell subgroups P1 through P8 in mitoses with DNV, HeLa; details: 24 hours, wogonin 50 μM, 5-FU 20 μM
From the text: “Daughter Number Variation” is a process that occurs during mitosis, where more than two daughter cells are produced per mitotic division. It is a two-stage process, wherein cell divisions of mono-nucleate, bi-nucleate, tri-nucleate and tetra-nucleate mother cells at Stage 1 produce subgroups of single mono-nucleate cells (herein referred to as P1), and subgroups containing one bi-nucleate cell and two mono-nucleate cells (herein referred to as P2). Stage 1 is followed by Stage 2, during which time some of the daughter cells from Stage 1 fuse to produce multi-nucleate cell subgroups, where the different subgroups differ with respect to the number of constituent cells and their nucleate status (herein referred to as P3 through P8). All the subgroups from a single DNV mitosis stay close to one another to form a distinct cluster when the cell culture is not overly dense with cells.
P1 subgroup cells are daughter mono-nucleate cells resulting from mitoses with DNV that have not undergone any post-mitotic cell fusion. P2 subgroup daughter cells are clusters of one bi-nucleate cell and two mono-nucleate cells, which also have not undergone any post-mitotic cell fusion during DNV, whereas each of the multi-nucleated subgroups contains at least one cell that is generated from post-mitotic fusions between the Stage 1 cells. P3 through P8 are daughter cell subgroups, which result from cell fusions during DNV, and wherein each subgroup includes at least one multinucleate cell.
By way of example and not of limitation, there is at least one multinucleate cell with two nuclei in P3 and P5, one multinucleate cell with three nuclei in P4 and P6, one multinucleate cell with four nuclei in P7, and one multinucleate cell with five nuclei in P8, sharing the same cytoplasm. More specifically, P3 cell subgroups are clusters of one multinucleate cell with two nuclei and one mononucleate cell, P4 cell subgroups are one multinucleate cell with three nuclei, P5 cell subgroups are clusters of either two multinucleate cells with two nuclei or one multinucleate cell with two nuclei and one binucleate cell, P6 cell subgroups are clusters of one multinucleate cell with three nuclei and one mononucleate cell, P7 cell subgroups are one multinucleate cell with four nuclei, and P8 cell subgroups are one multinucleate cell with five nuclei. P1 through P8 cell subgroups are depicted in detail in FIG. 2.
The counts of P1 and P2 subgroups of cancer cells are then used to obtain their proportions based on the total number of cell subgroups P1 through P8 that resulted from mitotic DNVs during the predetermined period of time. The proportions are typically expressed as percentages. The proportion of P1 subgroup of cells is calculated as (number of P1 subgroups)+(total number of daughter cell subgroups)×100%, and the proportion of (P1 and P2) subgroup is calculated as (number of P1 subgroups+number of P2 subgroups)+(total number of daughter cell subgroups)×100%. This can also be expressed as (number of P1 subgroups)+(total number of P1 through P8 subgroups)×100%, or (number of P1 subgroups+number of P2 subgroups)+(total number of P1 through P8 subgroups)×100%, respectively.
To investigate DNVs, the human HepG2 hepatocellular carcinoma, HeLa cervical adenocarcinoma, and A549 lung adenocarcinoma cell lines, as well as the non-cancerous RPE1 line of hTRET-immortalized retina epithelial cells, were obtained from the American Type Culture Collection (ATCC, Manassas, Va., USA) and cultivated in Dulbecco's Modified Eagle Medium (DMEM) supplemented with 10% fetal bovine serum (Gemini Bio-Products, Sacramento. Calif.) under a humidified atmosphere of 5% C02 at 37° C. […]

HeLa cells [2] = assay: Cell cytotoxicity assay (crystal violet), HeLa; details: 24 hours, 50 μM wogonin, 20 μM 5-FU, absorbance 600 nm
Protocol: as §1, §2

| Structure (SMILES) | Cell death as compared to neutral pH (HepG2 cells) | Mitoses with DNV, number (HeLa cells [1]) | P1 + P2 subgroups, number (HeLa cells [1]) | P1 subgroups, number (HeLa cells [1]) | P2 subgroups, % of all P1 through P8 subgroups (HeLa cells [1]) | P2 subgroups, number (HeLa cells [1]) | P3 subgroups, % of all P1 through P8 subgroups (HeLa cells [1]) | P3 subgroups, number (HeLa cells [1]) | P4 subgroups, number (HeLa cells [1]) | P5 subgroups, number (HeLa cells [1]) | P6 subgroups, number (HeLa cells [1]) | P7 subgroups, number (HeLa cells [1]) | P8 subgroups, number (HeLa cells [1]) | Cell death as compared to neutral pH (HeLa cells [2]) | P1 + P2 subgroups, % of all P1 through P8 subgroups (HeLa cells [1]) | P1 subgroups, % of all P1 through P8 subgroups (HeLa cells [1]) | P4 subgroups, % of all P1 through P8 subgroups (HeLa cells [1]) | P1 + P2 subgroups, % of all P1 through P8 subgroups (HeLa cells [1]; listed as wogonin) | P1 subgroups, % of all P1 through P8 subgroups (HeLa cells [1]; listed as wogonin) |
| --- | --- | --- | --- | --- | --- | --- | --- | --- | --- | --- | --- | --- | --- | --- | --- | --- | --- | --- | --- |
| O=c1[nH]cc(F)c(=O)[nH]1 [5-FU, 5-flurouracil] | increased cell death | 13 | 12 | 10 | (15.3) % | 2 | (7.6) % | 1 | 0 | 0 | 0 | 0 | 0 | increased cell death |  |  |  |  |  |
| COc1c(O)cc(O)c2c(=O)cc(-c3ccccc3)oc12 [Wogonin, wogonin] | increased cell death | 31 | 19 | 16 | (9.6) % | 3 | (32.2) % | 10 | 2 | 0 | 0 | 0 | 0 | increased cell death | (61.2) % | (51.6) % | (6.4) % | 61.2% | 51.6% |
